According to patent publication KR19980042868A, “인슐린-유사 작용을 갖는 이노시톨글리칸” (피셔 한스-위르겐, priority 1996, dated 1998):

Experiments:
[1] = tested on: rat adipocytes (랫트 지방 세포); experiment: Lipogenesis (지방형성): incorporation of D-[3-3H]glucose into toluene-soluble lipids in isolated rat adipocytes; type: cell-based; conditions: 90 min, 37°C; for EC50: concentration giving 50% of the compound's own maximum stimulation; for %Insmax: maximum insulin stimulation ratio (with/without insulin) = 100%
[2] = tested on: rat adipocytes (랫트 지방 세포); experiment: Glucose transport (글루코오스 이송): uptake of 2-[3H]-deoxyglucose in isolated rat adipocytes; type: cell-based; conditions: 15 min, 37°C, then 2-[3H]-deoxyglucose at room temperature; for EC50: concentration giving 50% of the compound's own maximum stimulation; for %Insmax: maximum insulin stimulation ratio = 100%

In the case of “HO-PO(H)O-6Manα1(Manα1-2)-2Manα1(6-EtNP)-6Manα1(2-EtNP)-4GluNβ1-6(D)이노시톨-1,2-(사이클릭)-포스페이트”, the EC50 [1] is reported as 60 µM, the “%Insmax” value [1] is reported as 48% and the EC50 [2] is reported as 30 µM. For the same substance, the “%Insmax” value [2] was 34%.

In the case of “HO-PO(H)O-6Manα1(Manα1-2)-2Manα1-6Manα1-3GluNβ1-6(L)이노시톨-3-포스페이트 [D]”, the EC50 [1] is reported as 20 µM, the “%Insmax” value [1] is reported as 33% and the EC50 [2] is reported as 18 µM. The “%Insmax” value [2] was 18%.

In the case of “HO-PO(H)O-6Manα1(Manα1-2)-2Manα1-6Manα1-4GluNα1-6(L)이노시톨-2-포스페이트 [F]”, the EC50 [1] is reported as 15 µM, the “%Insmax” value [1] is reported as 53% and the EC50 [2] is reported as 25 µM. The “%Insmax” value [2] was 26%.

“HO-PO(H)O-6Manα1(Manα1-2)-2Manα1-6Manα1-4GluNβ1-6(D)이노시톨-1,2-(사이클릭)-티오포스페이트 [C]” was tested, and the EC50 [1] was 7 µM, the “%Insmax” value [1] was 64% and the EC50 [2] was 10 µM. The “%Insmax” value [2] was 29%.

In the case of “HO-PO(H)O-6Manα1(Manα1-2)-2Manα1-6Manα1-4GluNβ1-6(D)이노시톨-1,2-(사이클릭)-포스페이트 [화합물 B]”, the EC50 [1] is reported as 8.2 µM, the “%Insmax” value [1] is reported as 77% and the EC50 [2] is reported as 8.1 µM. For the same substance, the “%Insmax” value [2] was 41%.

With HO-PO(H)O-6Manα1-4GluNα1-6(L)이노시톨 the EC50 [1] was 25 µM, the “%Insmax” value [1] was 15% and the EC50 [2] was 10 µM. For the same substance, the “%Insmax” value [2] was 2%.

For “HO-PO(H)O-6Manα1-4GluNα1-6(L)이노시톨-1,2-(사이클릭)-포스페이트”, the EC50 [1] was 15 µM, the “%Insmax” value [1] was 25% and the EC50 [2] was 15 µM. For the same substance, the “%Insmax” value [2] was 9%.

With “HO-PO(H)O-6Manα1-6-Manα1-6Manα1-6Manα1-3GluNβ1-6(L)이노시톨-3-포스페이트 [I]” the EC50 [1] was 20 µM, the “%Insmax” value [1] was 18% and the EC50 [2] was 50 µM. For the same substance, the “%Insmax” value [2] was 14%.

With “HO-PO(H)O-6Manα(Manα1-2)-2Manα1-6Manα1-4GluNβ1-6(L)이노시톨-1,2-(사이클릭)-포스페이트 [화합물 A]” the EC50 [1] was 7 µM, the “%Insmax” value [1] was 59% and the EC50 [2] was 8 µM. For the same substance, the “%Insmax” value [2] was 28%.
